# Results taken from ChEMBL document CHEMBL5506059, “Cyanomethylquinolones as a New Class of Potential Multitargeting Broad-Spectrum Antibacterial Agents” (J Med Chem, 2024).
# Active and inactive are the calls of the source. The calls are words filed in the database; no cut-off is given here.
# Legend:
# Escherichia coli [1] = assay: Antibacterial activity against Escherichia coli clinical isolate assessed as inhibition of bacterial growth incubated for 24 hrs; type: functional
# Escherichia coli [2] = assay: Antibacterial activity against Escherichia coli ATCC 25922 assessed as inhibition of bacterial growth incubated for 24 hrs; type: functional
# Pseudomonas aeruginosa [3] = assay: Antibacterial activity against Pseudomonas aeruginosa clinical isolate assessed as inhibition of bacterial growth incubated for 24 hrs; type: functional
# Staphylococcus aureus [4] = assay: Potency index, ratio of norfloxacin MIC to test compound MIC for antibacterial activity against Staphylococcus aureus clinical isolate assessed as inhibition of bacterial growth incubated for 24 hrs; type: functional
# Staphylococcus aureus [5] = assay: Potency index, ratio of clinafloxacin MIC to test compound MIC for antibacterial activity against Staphylococcus aureus clinical isolate assessed as inhibition of bacterial growth incubated for 24 hrs; type: functional
# Pseudomonas aeruginosa [6] = assay: Potency index, ratio of norfloxacin MIC to test compound MIC for antibacterial activity against Pseudomonas aeruginosa clinical isolate assessed as inhibition of bacterial growth incubated for 24 hrs; type: functional
# [7] = tested on: Staphylococcus epidermidis; assay: Antibacterial activity against Staphylococcus epidermidis ATCC 12228 assessed as inhibition of bacterial growth incubated for 24 hrs; type: functional
# Staphylococcus aureus [8] = assay: Antibacterial activity against Staphylococcus aureus CMCC(B)26003 assessed as inhibition of bacterial growth incubated for 24 hrs; type: functional
# Staphylococcus aureus [9] = assay: Antibacterial activity against Staphylococcus aureus CMCC(B)26001 assessed as inhibition of bacterial growth incubated for 24 hrs; type: functional
# Enterococcus faecalis [10] = assay: Antibacterial activity against vancomycin-resistant Enterococcus faecalis clinical isolate p1-2007226001 assessed as inhibition of bacterial growth incubated for 24 hrs; type: functional
# Enterococcus faecalis [11] = assay: Antibacterial activity against vancomycin-resistant Enterococcus faecalis clinical isolate p1-2007225053 assessed as inhibition of bacterial growth incubated for 24 hrs; type: functional
# [12] = Hemolytic activity in human Red blood cells at 256 ug/ml measured after 1.5 hrs by absorbance based assay relative to control; type: toxicity, cell-based, Erythrocyte; settings: red blood cells (erythrocytes), at 256 µg/mL, read-out: Activity
# HUVEC = assay: Cytotoxicity against HUVEC cells assessed as reduction in cell viability at 0.78 to 25 ug/ml measured after 24 hrs by MTT assay; type: toxicity, cell-based; settings: human, dose 0.78-25 µg/ml
# Staphylococcus aureus [13] = assay: Antibacterial activity against ciprofloxacin-treated Staphylococcus aureus ATCC 6538 assessed as inhibition of bacterial growth measured after 24 hrs; type: functional
# Staphylococcus aureus [14] = assay: Antibiofilm activity in methicillin resistant Staphylococcus aureus assessed as biofilm eradication measured after 24 hrs by crystal violet staining based analysis; type: functional, organism-based; settings: dose 1-2 µg/ml
# Staphylococcus aureus [15] = assay: Induction of morphological changes in methicillin resistant Staphylococcus aureus assessed as appearance of blurred intracellular boundaries with disintegration of bacterial structure at 2 ug/ml incubated for 3 hrs by SEM analysis; type: functional, organism-based; settings: dose 2.0 µg/ml
# Cell membrane [16] = assay: Induction of cell membrane depolarization in Pseudomonas aeruginosa assessed as increase in fluorescence intensity at 1 ug/ml measured for 30 mins by DiSC35 dye based fluorescence analysis; type: cell membranes; settings: dose 1.0 µg/ml
# Cell membrane [17] = assay: Induction of cell membrane permeability in Pseudomonas aeruginosa assessed as increase in fluorescence intensity at 1 to 2 ug/ml incubated for 6 hrs by PI staining based fluorescence analysis; type: cell membranes; settings: dose 1-2 µg/ml
# Cell membrane [18] = assay: Induction of cell membrane damage in methicillin-resistant Staphylococcus aureus assessed as increase in nucleic acid leakage at 0 to 2 ug/ml incubated for 12 hrs by optical density based microplate reader analysis; type: cell membranes; settings: dose 0-2 µg/ml
# Staphylococcus aureus [19] = assay: Antibacterial activity against methicillin resistant Staphylococcus aureus infected in female ICR mouse assessed as log reduction in bacterial load at 20 mg/kg pre-infected with bacteria for 24 hrs followed by compound administration on wound site every 6 hrs for 2 times and measured 36 hrs post infection; type: functional; settings: time 12 hrs
structure (smiles),measurement,setting,value
N#CCc1cc2c(cc1F)c(=O)c(C(=O)O)cn2C1CC1,MIC,Escherichia coli [1],2 µg/mL
same,MIC,Escherichia coli [2],0.5 µg/mL
same,MIC,Pseudomonas aeruginosa [3],0.25 µg/mL
same,Ratio,Staphylococcus aureus [4],32
same,Ratio,Staphylococcus aureus [5],2
same,Ratio,Pseudomonas aeruginosa [6],32
same,MIC,[7],0.5 µg/mL
same,MIC,Staphylococcus aureus [8],0.125 µg/mL
same,MIC,Staphylococcus aureus [9],0.125 µg/mL
same,MIC,Enterococcus faecalis [10],4 µg/mL
same,MIC,Enterococcus faecalis [11],0.125 µg/mL
same,"hemolysis at 1.5 h, 256 ug/ml",[12],< 1%
same,Activity,HUVEC,Non-Toxic
same,MIC,Staphylococcus aureus [13],8 µg/mL
same,Activity,Staphylococcus aureus [14],Dose-Dependent Effect
same,Activity,Staphylococcus aureus [15],Active
same,Activity,Cell membrane [16],Active
same,Activity,Cell membrane [17],Active
same,Activity,Cell membrane [18],Active
same,log(activity),Staphylococcus aureus [19],~4
